From US12240844B2 (Voronoi, Inc., priority 2019, dated 2025)

How the values were obtained:
[1] = target: T1, human GST-DYRK1A (full length) (Homo sapiens, UniProt Q13627); assay: GST-DYRK1A enzyme inhibition, ADP-Glo kinase assay; format: biochemical; conditions: read-out: DYRK1 IC50
T1 construct: purified human GST-DYRK1A (full length, Thermo scientifics) enzyme; GST; purchased Thermo scientifics
Procedure: (§1) In order to evaluate the inhibitory activity of the compounds according to the present invention on LRRK2, LRRK2 (G2019S), DYRK1, CLK1 and TTK kinases, the following experiment was performed.
(§2) Example compounds were reacted with the purified human GST-DYRK1A (full length, Thermo scientifics) enzyme to evaluate the enzyme inhibitory ability as follows. As the reaction buffer, the composition of 40 mM Tris-HCl pH 7.4, 20 mM MgCl2, 0.5 mg/mL BSA, and 50 uM DTT was used, and the reaction of all test materials was performed on the reaction buffer. During the test, the human GST-DYRK1A (full length, 10 ng) enzyme, the purified ATP (10 uM), and a specific substrate solution were reacted at 25° C. for 1 hour, and then the enzyme activity was identified using the in vitro ADP-Glo™ kinase assay (promega). Luminescence was measured by reacting the enzyme activity reaction solution, an ADP-Glo reaction solution and the enzyme potency detection solution in a ratio of 2:2:1. The degree of inhibition of enzyme activity according to the treatment concentrations of the respective compounds was calculated based on the fluorescence of the enzyme activity of a solvent control group that was not treated with the compound, where the concentration of each compound to inhibit enzyme activity inhibition by 50% was determined as an IC50 (nM) value. The IC50 of each compound was determined in triplicate data sets and obtained using Prism (version 7.01, GraphPad) software.
(§3) In the table below, the following designations were used for the evaluation of enzyme inhibitory ability.

[2] = target: T2, human GST-CLK1 (129-end) (Homo sapiens, UniProt P49759); assay: GST-CLK1 enzyme inhibition, ADP-Glo kinase assay; format: biochemical; conditions: ATP 10 uM
T2 construct: purified human GST-CLK1 (129-end, Signalchem) enzyme; GST; purchased Signalchem
Procedure: as §1
as §2, with “GST-CLK1 (129-end, Signalchem)” for “GST-DYRK1A (full length, Thermo scientifics)”, “GST-CLK1 (129-end, 3” for “GST-DYRK1A (full length, 10”
as §3

T2 sequence (P49759 129-484 limits assumed): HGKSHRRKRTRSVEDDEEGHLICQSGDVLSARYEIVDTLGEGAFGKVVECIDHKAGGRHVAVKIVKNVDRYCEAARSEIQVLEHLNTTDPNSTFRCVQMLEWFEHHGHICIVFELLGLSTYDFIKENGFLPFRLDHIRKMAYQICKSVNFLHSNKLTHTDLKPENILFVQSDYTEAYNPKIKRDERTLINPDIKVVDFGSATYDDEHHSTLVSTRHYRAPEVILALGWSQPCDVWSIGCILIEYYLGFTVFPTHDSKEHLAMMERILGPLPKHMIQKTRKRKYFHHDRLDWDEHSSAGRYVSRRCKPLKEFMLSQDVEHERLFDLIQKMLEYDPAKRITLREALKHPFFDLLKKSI

IC50 [1] [nM] | IC50 [2] [nM] | SMILES
< 100 | < 100 | O=C(c1ccc(Nc2cc(NC3CCC3)c3c(C(F)(F)F)c[nH]c3n2)c2c1OCCO2)N1CCC(N2CCOCC2)CC1 [Example 176, (8-((4-(cyclobutylamino)-3-(trifluoromethyl)-1H-pyrrolo[2,3-b]pyridin-6-yl)amino)-2,3-dihydrobenzo[b] [1,4]dioxin-5-yl)(4-morpholinopiperidin-1-yl)methanone]
301 to 1000 | 301 to 1000 | CCCCNc1cc(Nc2ccc(C(=O)N3CCOCC3)c3c2OCCO3)nc2[nH]cc(C(F)(F)F)c12 [Example 169, (8-((4-(butylamino)-3-(trifluoromethyl)-1H-pyrrolo[2,3-b]pyridin-6-yl)amino)-2,3-dihydrobenzo [b] [1,4]dioxin-5-yl)(morpholino) methanone]
301 to 1000 | < 100 | CCCCNc1cc(Nc2ccc(C(=O)N3CCC(N4CCOCC4)CC3)c3c2OCCO3)nc2[nH]cc(C(F)(F)F)c12 [Example 170, (8-((4-(butylamino)-3-(trifluoromethyl)-1H-pyrrolo[2,3-b]pyridin-6-yl)amino)-2,3-dihydrobenzo[b] [1,4]dioxin-5-yl)(4-morpholinopiperidin-1-yl)methanone]
301 to 1000 | 101 to 300 | O=C(c1ccc(Nc2cc(NC3CCC3)c3c(C(F)(F)F)c[nH]c3n2)c2c1OCCO2)N1CCOCC1 [Example 175, (8-((4-(cyclobutylamino)-3-(trifluoromethyl)-1H-pyrrolo[2,3-b]pyridin-6-yl)amino)-2,3-dihydrobenzo[b] [1,4]dioxin-5-yl)(morpholino) methanone 2,2,2-trifluoroacetate]
301 to 1000 | < 100 | CC(C)Nc1cc(Nc2ccc(C(=O)N3CCOCC3)c3c2OCCO3)nc2[nH]cc(C(F)(F)F)c12 [Example 168, (8-((4-(isopropylamino)-3-(trifluoromethyl)-1H-pyrrolo[2,3-b]pyridin-6-yl)amino)-2,3-dihydrobenzo [b] [1,4]dioxin-5-yl)(morpholino) methanone]
301 to 1000 | 301 to 1000 | COc1cc(P(C)(C)=O)ccc1Nc1cc(C2CC2)c2c(C#N)c[nH]c2n1 [Example 230, 4-cyclopropyl-6-((4-(dimethylphosphoryl)-2-methoxyphenyl)amino)-1H-pyrrolo[2,3-b]pyridine-3-carbonitrile]

Further lines, the compound ahead of its results:

SMILES | IC50 [1] [nM] | IC50 [2] [nM]
CCNc1cc(Nc2ccc(C(=O)N3CCC(N4CCOCC4)CC3)c3c2OCO3)nc2[nH]cc(C#N)c12 [Example 34, 4-(ethylamino)-6-((7-(4-morpholinopiperidine-1-carbonyl)benzo[d] [1,3]dioxol-4-yl)amino)-1H-pyrrolo[2,3-b]pyridine-3-carbonitrile] | < 100 | < 100
CCNc1cc(Nc2ccc(C(=O)N3CCOCC3)c3c2OCO3)nc2[nH]cc(C#N)c12 [Example 33] | 301 to 1000 | 101 to 300
CCOCCNc1cc(Nc2ccc(C(=O)N3CCC(N4CCOCC4)CC3)c3c2OCCO3)nc2[nH]cc(C(F)(F)F)c12 [Example 167, (8-((4-((2-ethoxyethyl)amino)-3-(trifluoromethyl)-1H-pyrrolo[2,3-b]pyridin-6-yl)amino)-2,3-dihydrobenzo[b] [1,4]dioxin-5-yl)(4-morpholinopiperidin-1-yl)methanone] | < 100 | < 100
N#Cc1c[nH]c2nc(Nc3ccc(C(=O)N4CCOCC4)c4c3OCCO4)cc(NC3CCC3)c12 [Example 36, 4-(cyclobutylamino)-6-((8-(morpholine-4-carbonyl)-2,3-dihydrobenzo[b] [1,4]dioxin-5-yl)amino)-1H-pyrrolo[2,3-b]pyridine-3-carbonitrile] | 301 to 1000 | 301 to 1000
COCCNc1cc(Nc2ccc(S(C)(=O)=O)cc2OC)nc2[nH]cc(Cl)c12 [Example 87, 3-chloro-N^6-(2-methoxy-4-(methylsulfonyl)phenyl)-N^4-(2-methoxyethyl)-1H-pyrrolo[2,3-b]pyridine-4,6-diamine] | 301 to 1000 | 301 to 1000
COc1cc(S(=O)(=O)N2CCC(N3CCOCC3)CC2)ccc1Nc1cc(NC2CCCCC2)c2c(Cl)c[nH]c2n1 [Example 77, 3-chloro-N^4-cyclohexyl-N^6-(2-methoxy-4-((morpholinopiperidin-1-yl)sulfonyl)phenyl)-1H-pyrrolo[2,3-b]pyridine-4,6-diamine] | 301 to 1000 | 301 to 1000
COc1cc(S(=O)(=O)N2CCC(N3CCOCC3)CC2)ccc1Nc1cc(NCCS(C)(=O)=O)c2c(Cl)c[nH]c2n1 [Example 79, 3-chloro-N^6-(2-methoxy-4-((morpholinopiperidin-1-yl)sulfonyl)phenyl)-N^4-(2-(methylsulfonyl)ethyl)-1H-pyrrolo[2,3-b]pyridine-4,6-diamine] | < 100 | < 100
COCCNc1cc(Nc2ccc(S(=O)(=O)N3CCC(N4CCOCC4)CC3)cc2OC)nc2[nH]cc(Cl)c12 [Example 78, 3-chloro-N^6-(2-methoxy-4-((morpholinopiperidin-1-yl)sulfonyl)phenyl)-N^4-(2-methoxyethyl)-1H-pyrrolo[2,3-b]pyridine-4,6-diamine] | 301 to 1000 | 301 to 1000
COc1cc(S(C)(=O)=O)ccc1Nc1cc(NC2CCCCC2)c2c(Cl)c[nH]c2n1 [Example 86, 3-chloro-N^4-cyclohexyl-N^6-(2-methoxy-4-(methylsulfonyl)phenyl)-1H-pyrrolo[2,3-b]pyridine-4,6-diamine] | 301 to 1000 | 301 to 1000
CCOCCNc1cc(Nc2ccc(C(=O)N3CCOCC3)c3c2OCCO3)nc2[nH]cc(C(F)(F)F)c12 [Example 166, (8-((4-((2-ethoxyethyl)amino)-3-(trifluoromethyl)-1H-pyrrolo[2,3-b]pyridin-6-yl)amino)-2,3-dihydrobenzo[b] [1,4]dioxin-5-yl)(morpholino) methanone] | 101 to 300 | 301 to 1000
CCNc1cc(Nc2ccc(C(=O)N3CCN(C4COC4)CC3)c3c2OCCO3)nc2[nH]cc(C#N)c12 [Example 35, 4-(ethylamino)-6-((8-(4-(oxetan-3-yl)piperazine-1-carbonyl)-2,3-dihydrobenzo[b] [1,4]dioxin-5-yl)amino)-1H-pyrrolo[2,3-b]pyridine-3-carbonitrile] | 101 to 300 | 101 to 300
COCCNc1cc(Nc2ccc(S(=O)(=O)N3CCOCC3)cc2OC)nc2[nH]cc(Cl)c12 [Example 71, 3-chloro-N^6-(2-methoxy-4-(morpholinosulfonyl)phenyl)-N^4-(2-methoxyethyl)-1H-pyrrolo[2,3-b]pyridine-4,6-diamine] | 301 to 1000 | 301 to 1000
O=C(c1ccc(Nc2cc(NC3CCCCC3)c3c(Cl)c[nH]c3n2)c2c1OCCO2)N1CCOCC1 [Example 61, (8-((3-chloro-4-(cyclohexylamino)-1H-pyrrolo[2,3-b]pyridin-6-yl)amino)-2,3-dihydrobenzo[b] [1,4]dioxin-5-yl)(morpholino) methanone] | 301 to 1000 | 301 to 1000
